Laboratory results reported in EP0367124A1, “Penicillanic acid derivatives” (F. HOFFMANN-LA ROCHE AG, priority 1988, dated 1990).
Counter-ions that a name gives are not always drawn.

How the values were obtained:
Test in all cases: In vitro MIC, Agar Well Diffusion Method
Format in all cases: cell-based
[1] = test system: Staphylococcus aureus 3037B; conditions: Culture Staphylococcus aureus 3037B
[2] = test system: Staphylococcus aureus 1059B; conditions: Culture Staphylococcus aureus 1059B
[3] = test system: Escherichia coli 2721B; conditions: Culture Escherichia coli 2721B
Text: (§1) The in vitro activity of compounds of the present invention as measured by the Minimum Inhibitory Concentration (MIC) in micrograms per milliliter (mcg/ml), utilizing the Agar Well Diffusion Method, against a variety of Gram-negative microorganisms is illustrated in the following Table, in which the compounds evaluated were as follows: • Compound A: [2S-[2α,3α,5α,6β(R*)]]-6-[[[[(4-Ethyl-2,3-dioxo-1-piperazinyl)carbonyl]amino]phenylacetyl]amino]-3-methyl-3-[[(1-methyl-1H-tetrazole-5-yl)thio]methyl]-7-oxo-4-thia-1-azabicyclo[3.2.0]-heptane-2-carboxylic acid monosodium salt sesquihydrate • Compound B: [2S-(2α,3α,5α,6β)]-3-Methyl-3-[[(1-methyl-1H-tetrazol-5-yl)-thio]methyl-7-oxo-6-[(phenylacetyl)amino]-4-thia-1-azabicyclo[3.2.0] heptane-2-carboxylic acid monosodium salt • Compound C: [2S-[2α,3α,5α,6β(Z)]]-6-[[(2-Amino-4-thiazolyl)-(methoxyimino)-acetyl]amino]-3-methyl -3-[[(1-methyl-1H-tetrazol-5-yl)thio]methyl]-7-oxo-4-thia-1-azabicyclo[3.2.0]heptane-2-carboxylic acid monosodium salt • Compound D: [2S-(2α,3α,5α,6β)]-3-(Azidomethyl)-3-methyl-7-oxo-6-[(phenylacetyl)amino]-4-thia-1-azabicyclo-[3.2.0]heptane-2-carboxylic acid monosodium salt • Compound E: [2S-(2α,3α,5α,6β)]-1-[[2-carboxy-3-methyl-7-oxo-6-[(phenylacetyl)amino]-4-thia-1-azabicyclo-[3.2.0]hept-3-yl]methylpyridinium hydroxide inner salt • Compound F: [2S-(2α,3α,5α,6β)]-3-[[(2,5-Dihydro-6-hydroxy-2-methyl-5-oxo-1,2,4-triazine-3-yl)thio] -methyl]-3-methyl-7-oxo-6-[(phenylacetyl)amino]-4-thia-1-azabicyclo[3.2.0]heptane-2-carboxylic acid disodium salt • Compound G: [2S-(2α,3α,5α,6β)]-3-[(Acetylthio)-methyl]-3-methyl-7-oxo-6-[(phenylacetyl)amino]-4-thia-1-azabicyclo[3.2.0]heptane-2-carboxylic acid monosodium salt • Compound H: [2S-(2α,3α,5α,6β)]-3-[[[3,4-bis(Acetyloxy)benzoyl]oxy]methyl]-3-methyl-7-oxo-6-[(phenylacetyl)amino]-4-thia-1-azabicyclo[3.2.0]heptane-2-carboxylic acid monosodium salt

[4] = test system: Escherichia coli 2722B; conditions: Culture Escherichia coli 2722B
Text: as §1

[5] = test system: Micrococcus luteus PCI ATCC 9341; conditions: for MIC: ATCC9341, Culture Micrococcus luteus PCI ATCC 9341
Text: as §1

[6] = test system: Pseudomonas aeruginosa 56 ATCC 8079; conditions: for MIC: ATCC8079, Culture Pseudomonas aeruginosa 56 ATCC 8079
Text: as §1

[7] = test system: Streptococcus faecium ATCC 8043; conditions: for MIC: Enterococcus faecium, ATCC8043, Culture Streptococcus faecium ATCC 8043
Text: as §1

[8] = test system: Proteus vulgaris 101N ATCC 6380; conditions: for MIC: ATCC6380, Culture Proteus vulgaris 101N ATCC 6380
Text: as §1

[9] = test system: Staphylococcus aureus 3647B; conditions: Culture Staphylococcus aureus 3647B
Text: as §1

[10] = test system: Bacillus subtilus 558 NRRL 558; conditions: for MIC: NRRL558, Culture Bacillus subtilus 558 NRRL 558
Text: as §1

[11] = test system: Escherichia coli 3082B; conditions: Culture Escherichia coli 3082B
Text: as §1

[12] = test system: Escherichia coli 3081B; conditions: Culture Escherichia coli 3081B
Text: as §1

[13] = test system: Staphylococcus aureus 82 ATCC 6538P; conditions: Culture Staphylococcus aureus 82 ATCC 6538P; for MIC: ATCC6538P
Text: as §1

[14] = test system: Pseudomonas maltophilia 28978 ATCC 17445; conditions: Stenotrophomonas maltophilia, ATCC17445, Culture Pseudomonas maltophilia 28978 ATCC 17445
Text: as §1

[15] = test system: Bacillus megaterium 164 ATCC 8011; conditions: for MIC: Priestia megaterium, ATCC8011, Culture Bacillus megaterium 164 ATCC 8011
Text: as §1

[16] = test system: Escherichia coli 1269B; conditions: Culture Escherichia coli 1269B
Text: as §1

[17] = test system: Pseudomonas aeruginosa 56M; conditions: Culture Pseudomonas aeruginosa 56M
Text: as §1

[18] = test system: Proteus vulgaris 100; conditions: Culture Proteus vulgaris 100
Text: as §1

Structure (SMILES) | MIC [1] [µg/mL] | MIC [2] [µg/mL] | MIC [3] [µg/mL] | MIC [4] [µg/mL] | MIC [5] [µg/mL] | MIC [6] [µg/mL] | MIC [7] [µg/mL] | MIC [8] [µg/mL] | MIC [9] [µg/mL] | MIC [10] [µg/mL] | MIC [11] [µg/mL] | MIC [12] [µg/mL] | MIC [13] [µg/mL] | MIC [14] [µg/mL] | MIC [15] [µg/mL] | MIC [16] [µg/mL] | MIC [17] [µg/mL] | MIC [18] [µg/mL] | further results
CCN1CCN(C(=O)NC(C(=O)NC2C(=O)N3C2SC(C)(CSc2nnnn2C)C3C(=O)O)c2ccccc2)C(=O)C1=O (stereo not drawn) [Compound A, [2S-[2α,3α,5α,6β(R*)]]-6-[[[[(4-Ethyl-2,3-dioxo-1-piperazinyl)carbonyl]amino]phenylacetyl]amino]-3-methyl-3-[[(1-methyl-1H-tetrazole-5-yl)thio]methyl]-7-oxo-4-thia-1-azabicyclo[3.2.0]-heptane-2-carboxylic acid monosodium salt sesquihydrate] | 500 | 7.8 | 3.9 | 0.12 | 0.49 | 15.6 | 31.3 | 0.98 | 500 | 0.98 | 0.24 | 15.6 | 0.98 | 250 | 0.12 | 62.5 | 0.49 | 7.8 | –
Cn1nnnc1SCC1(C)SC2C(NC(=O)Cc3ccccc3)C(=O)N2C1C(=O)O (stereo not drawn) [Compound B, [2S-(2α,3α,5α,6β)]-3-Methyl-3-[[(1-methyl-1H-tetrazol-5-yl)-thio]methyl-7-oxo-6-[(phenylacetyl)amino]-4-thia-1-azabicyclo[3.2.0]heptane-2-carboxylic acid monosodium salt] | 125 | 3.9 | 62.5 | 31.3 | 0.03 | 62.5 | 7.8 | 15.6 | 125 | 0.03 | 31.3 | > 125 | 0.03 | > 125 | 0.015 | > 125 | 0.98 | > 125 | –
CON=C(C(=O)NC1C(=O)N2C1SC(C)(CSc1nnnn1C)C2C(=O)O)c1csc(N)n1 (stereo not drawn) [Compound C, [2S-[2α,3α,5α,6β(Z)]]-6-[[(2-Amino-4-thiazolyl)-(methoxyimino)-acetyl]amino]-3-methyl-3-[[(1-methyl-1H-tetrazol-5-yl)thio]methyl]-7-oxo-4-thia-1-azabicyclo[3.2.0]heptane-2-carboxylic acid monosodium salt] | 250 | 3.9 | 31.3 | 1.95 | 0.24 | 62.5 | 125 | 31.3 | 250 | 0.49 | 1.95 | > 125 | 0.49 | > 500 | 0.12 | > 500 | 0.98 | 250 | –
CC1(CN=[N+]=[N-])SC2C(NC(=O)Cc3ccccc3)C(=O)N2C1C(=O)O (stereo not drawn) [Compound D, [2S-(2α,3α,5α,6β)]-3-(Azidomethyl)-3-methyl-7-oxo-6-[(phenylacetyl)amino]-4-thia-1-azabicyclo-[3.2.0]heptane-2-carboxylic acid monosodium salt] | 125 | 7.8 | 62.5 | 15.6 | 0.03 | > 125 | 7.8 | 15.6 | 125 | 0.06 | 7.8 | 125 | 0.03 | > 125 | 0.12 | > 125 | 3.9 | > 125 | –
CC1(C[n+]2ccccc2)SC2C(NC(=O)Cc3ccccc3)C(=O)N2C1C(=O)[O-] (stereo not drawn) [Compound E, [2S-(2α,3α,5α,6β)]-1-[[2-carboxy-3-methyl-7-oxo-6-[(phenylacetyl)amino]-4-thia-1-azabicyclo-[3.2.0]hept-3-yl]methylpyridinium hydroxideinner salt] | 62.5 | 15.6 | 31.3 | 31.3 | 1.95 | 125 | 125 | 125 | 500 | 0.24 | 31.3 | 125 | 0.49 | – | 0.49 | 500 | 3.9 | > 500 | –
Cn1nc([O-])c(=O)nc1SC[C@@]1(C)S[C@@H]2[C@H](NC(=O)Cc3ccccc3)C(=O)N2[C@H]1C(=O)[O-].[Na+].[Na+] [Compound F, [2S-(2α,3α,5α,6β)]-3-[[(2,5-Dihydro-6-hydroxy-2-methyl-5-oxo-1,2,4-triazine-3-yl)thio] -methyl]-3-methyl-7-oxo-6-[(phenylacetyl)amino]-4-thia-1-azabicyclo[3.2.0]heptane-2-carboxylic acid disodium salt] | – | – | – | – | – | – | – | – | – | – | – | – | – | – | – | – | – | – | In Vitro MIC [1]: 500 µg/mL; In Vitro MIC [2]: 0.24 µg/mL; In Vitro MIC [3]: 31.3 µg/mL; In Vitro MIC [4]: 3.9 µg/mL; In Vitro MIC ([5]; Culture Micrococcus luteus PCI ATCC 9341): 0.24 µg/mL; In Vitro MIC ([6]; Culture Pseudomonas aeruginosa 56 ATCC 8079): 31.5 µg/mL; In Vitro MIC ([7]; Culture Streptococcus faecium ATCC 8043): 62.5 µg/mL; In Vitro MIC ([8]; Culture Proteus vulgaris 101N ATCC 6380): 7.8 µg/mL; In Vitro MIC [9]: 500 µg/mL; In Vitro MIC ([10]; Culture Bacillus subtilus 558 NRRL 558): 0.12 µg/mL; In Vitro MIC [11]: 0.98 µg/mL; In Vitro MIC [12]: 125 µg/mL; In Vitro MIC [13]: 0.24 µg/mL; In Vitro MIC ([15]; Culture Bacillus megaterium 164 ATCC 8011): 0.12 µg/mL; In Vitro MIC [16]: 500 µg/mL; In Vitro MIC [17]: 0.49 µg/mL; In Vitro MIC [18]: 250 µg/mL
CC(=O)SCC1(C)SC2C(NC(=O)Cc3ccccc3)C(=O)N2C1C(=O)O (stereo not drawn) [Compound G, [2S-(2α,3α,5α,6β)]-3-[(Acetylthio)methyl]-3-methyl-7-oxo-6-[(phenylacetyl)amino]-4-thia-1-azabicyclo[3.2.0]heptane-2-carboxylic acid monosodium salt] | 250 | 0.98 | 62.5 | 7.8 | 0.06 | 125 | 0.98 | 31.3 | 250 | 0.03 | 1.95 | 500 | 0.03 | > 500 | – | – | 0.98 | > 500 | –
CC(=O)Oc1ccc(C(=O)OCC2(C)SC3C(NC(=O)Cc4ccccc4)C(=O)N3C2C(=O)O)cc1OC(C)=O (stereo not drawn) [Compound H, [2S-(2α,3α,5α,6β)]-3-[[[3,4-bis(Acetyloxy)benzoyl]oxy]methyl]-3-methyl-7-oxo-6-[(phenylacetyl)amino]-4-thia-1-azabicyclo[3.2.0]heptane-2-carboxylic acid monosodium salt] | 125 | 7.8 | 500 | 62.5 | 0.12 | 31.5 | 7.8 | 62.5 | 500 | 0.12 | 15.6 | > 500 | 0.12 | 31.5 | – | – | 1.95 | > 500 | –
